# According to US10519162B2, “6,7-dihydropyrazolo[1,5-α]pyrazin-4(5H)-one compounds and their use as negative allosteric modulators of mGluR2 receptors” (Janssen Pharmaceutica NV, priority 2014, dated 2019):
# Tests used:
# human mGlu2 receptor = molecular target: T1, human mGlu2 receptor (Homo sapiens, UniProt Q14416); test: [35S]GTPγS binding assay (mGluR2 negative allosteric modulation, glutamate ~EC80 60 μM); format: biochemical; conditions: for Emax: maximal % inhibition relative to the control glutamate response (EC80 glutamate), read-out: GTPγS-hmGluR2 anGT Emax; for IC50: membranes from CHO cells transfected with human mGlu2 receptor, glutamate ~EC80 (60 μM), pIC50 = −log IC50 (M), read-out: GTPγS-hmGluR2 anGT pIC50 (converted)
# T1 construct: expressed in transfected cells; host or cells: CHO cells
# Description: 1) [^35S]GTPγS Binding Assay
# [^35S]GTPγS Binding Assay
# Total reaction volume was 200 μl. […] Membrane-bound radioactivity was counted in a Topcount.
# T1 sequence (Q14416 19-872): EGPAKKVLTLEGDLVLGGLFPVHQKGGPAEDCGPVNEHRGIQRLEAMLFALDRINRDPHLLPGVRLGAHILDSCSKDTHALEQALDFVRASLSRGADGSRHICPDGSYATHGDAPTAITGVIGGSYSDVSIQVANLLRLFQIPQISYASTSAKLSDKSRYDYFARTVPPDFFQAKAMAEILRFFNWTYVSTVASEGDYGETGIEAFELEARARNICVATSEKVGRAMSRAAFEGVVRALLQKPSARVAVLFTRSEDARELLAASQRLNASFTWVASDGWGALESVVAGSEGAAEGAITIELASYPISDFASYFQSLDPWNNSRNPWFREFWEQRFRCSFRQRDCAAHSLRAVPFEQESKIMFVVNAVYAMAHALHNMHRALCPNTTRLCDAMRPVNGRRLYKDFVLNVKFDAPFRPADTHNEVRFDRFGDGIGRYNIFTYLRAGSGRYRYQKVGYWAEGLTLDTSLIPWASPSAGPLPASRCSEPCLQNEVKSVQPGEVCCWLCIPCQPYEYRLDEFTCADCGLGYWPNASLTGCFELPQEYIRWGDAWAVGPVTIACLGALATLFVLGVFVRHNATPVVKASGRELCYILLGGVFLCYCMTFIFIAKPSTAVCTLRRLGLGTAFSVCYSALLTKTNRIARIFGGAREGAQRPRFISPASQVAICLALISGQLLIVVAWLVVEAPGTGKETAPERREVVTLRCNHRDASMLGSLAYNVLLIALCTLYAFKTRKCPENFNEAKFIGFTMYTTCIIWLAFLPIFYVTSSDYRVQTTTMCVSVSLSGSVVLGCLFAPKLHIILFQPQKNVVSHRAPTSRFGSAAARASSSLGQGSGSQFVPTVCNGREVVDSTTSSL
SMILES,melting point [°C],Emax (human mGlu2 receptor) [%],IC50 (human mGlu2 receptor) [M]
COc1ccc(F)cc1C(=O)Nc1cnn2c1C(=O)N(c1ccc(C(F)(F)F)cc1)C[C@@H]2C [Co. No. 10],204.35,113,2.57e-09
C[C@H]1CN(c2ccc(C(F)(F)F)cc2)C(=O)c2c(NC(=O)c3ccc(Cl)cn3)cnn21 [Co. No. 46],237.65,104,1.26e-08
Cc1ncc(C(=O)Nc2cnn3c2C(=O)N(c2ccc(C(F)(F)F)cc2)C[C@@H]3C)cn1 [Co. No. 88],231.1,99,2.24e-07
C[C@H]1CN(c2ccc(C(F)(F)F)cc2)C(=O)c2c(NC(=O)c3ccc(C#N)cn3)cnn21 [Co. No. 85],291.58,106,1.66e-07
COc1nc(N2C[C@H](C)n3ncc(NC(=O)c4ccc(N)nc4)c3C2=O)ccc1C(F)(F)F [Co. No. 33],250.03,117,7.59e-09
C[C@H]1CN(c2ccc(C(F)(F)F)cc2)C(=O)c2c(NC(=O)c3ccnc(N)c3)cnn21 [Co. No. 50],225.63,104,1.38e-08
COc1ncccc1C(=O)Nc1cnn2c1C(=O)N(c1ccc(C(F)(F)F)cc1)C[C@@H]2C [Co. No. 43],213.83,114,1.12e-08
COc1ccc(C(=O)Nc2cnn3c2C(=O)N(c2ccc(C(F)(F)F)cc2)C[C@@H]3C)cc1F [Co. No. 23],152.43,105,5.5e-09
C[C@H]1CN(c2ccc(C(F)(F)F)cc2)C(=O)c2c(NC(=O)c3ncc[nH]3)cnn21 [Co. No. 80],275.03,111,1e-07
COc1cccc(C(=O)Nc2cnn3c2C(=O)N(c2ccc(C(F)(F)F)cc2)C[C@@H]3C)c1F [Co. No. 59],205.32,110,2.24e-08
COc1ccc(C(=O)Nc2cnn3c2C(=O)N(c2ccc(C(F)(F)F)cc2)C[C@@H]3C)cc1 [Co. No. 25],164.82,104,6.17e-09
COc1cc(F)cc(C(=O)Nc2cnn3c2C(=O)N(c2ccc(C(F)(F)F)cc2)C[C@@H]3C)c1 [Co. No. 17],136.53,114,3.72e-09
Cc1cccc(C(=O)Nc2cnn3c2C(=O)N(c2ccc(C(F)(F)F)cc2)C[C@@H]3C)c1 [Co. No. 9],147.4,106,2.45e-09

# The remaining lines, values ahead:
melting point [°C],Emax (human mGlu2 receptor) [%],IC50 (human mGlu2 receptor) [M],SMILES
97.9,108,2.29e-09,Cc1c(F)cncc1C(=O)Nc1cnn2c1C(=O)N(c1ccc(C(F)(F)F)c(Cl)c1)C[C@@H]2C [Co. No. 135]
124.01,109,2.45e-09,Cc1cc(C(=O)Nc2cnn3c2C(=O)N(c2ccc(C(F)(F)F)c(Cl)c2)C[C@@H]3C)cc(Cl)n1 [Co. No. 142]
162.12,102,1.07e-06,O=C(Nc1cnn2c1C(=O)N(c1ccc(C(F)(F)F)cc1)CC2)c1cccnc1 [Co. No. 190]
172.8,109,3.31e-09,Cc1cncc(C(=O)Nc2cnn3c2C(=O)N(c2ccc(C(F)(F)F)c(Cl)c2)C[C@@H]3C)c1C [Co. No. 133]
196.39,107,2.75e-09,Cc1cc(C(=O)Nc2cnn3c2C(=O)N(c2ccc(C(F)(F)F)cc2)C[C@@H]3C)cc(N)n1 [Co. No. 162]
265.47,107,4.37e-08,Cc1cc(C(=O)Nc2cnn3c2C(=O)N(c2ccc(C(F)(F)F)cc2)C[C@@H]3C)nc(N)n1 [Co. No. 180]
